Assay results taken from patent US8101580B2, “Therapeutic agent for irritable bowel syndrome” (Astellas Pharma Inc., priority 2005, dated 2012).

Legend:
[1] = molecular target: T1, BB2 receptor (Homo sapiens, UniProt P30550); experiment: BB2 receptor binding test (125I [Tyr4] bombesin, PC-3 cell membrane sample); conditions: membrane sample of human prostate cancer-derived PC-3 cell; 125I [Tyr4] bombesin 0.075 nM; room temperature, 2 hours; read-out: 50% binding inhibition concentration
T1 construct: endogenous in cells; host or cells: PC-3 human prostate cancer cells (membrane preparation)
T1 sequence (P30550 whole entry): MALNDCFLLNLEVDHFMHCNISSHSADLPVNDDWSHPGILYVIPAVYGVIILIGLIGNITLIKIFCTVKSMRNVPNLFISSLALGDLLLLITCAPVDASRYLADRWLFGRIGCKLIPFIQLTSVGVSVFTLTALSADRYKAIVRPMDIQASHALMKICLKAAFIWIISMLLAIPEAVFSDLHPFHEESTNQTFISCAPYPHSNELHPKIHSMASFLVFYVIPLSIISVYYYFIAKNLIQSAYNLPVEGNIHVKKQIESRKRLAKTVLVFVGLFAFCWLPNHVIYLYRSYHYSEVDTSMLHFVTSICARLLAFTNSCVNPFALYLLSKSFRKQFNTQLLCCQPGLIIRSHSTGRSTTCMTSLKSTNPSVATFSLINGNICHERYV
Experimental: A BB2 receptor binding test was carried out using a membrane sample prepared from a human prostate cancer-derived PC-3 cell. The PC-3 cell was cultured using RPMI-1640 medium containing 5% fetal bovine serum, and then a membrane sample was prepared by the following methods. The cells loosened by a trypsin treatment were mixed with 50 mM Tris-HCl buffer (pH 7.4, containing 0.2 mg/ml trypsin inhibitor and 0.2 mg/ml benzamidine) and homogenized by Polytron. The cell suspension was centrifuged at 1,500 rpm for 10 minutes, and the thus obtained supernatant was subjected to 1 hour of ultracentrifugation at 37,000 rpm. The precipitate was suspended in the aforementioned buffer to a concentration of 0.4 mg protein/ml and stored at −80° C.
The BB2 receptor binding test was carried out by the following method, and the receptor antagonistic activity of a compound to be tested was calculated. A 50 μl portion of the membrane sample, 50 μl of an assay buffer (20 mM HEPES-HBSS containing 0.1% bovine serum albumin and 0.1 mg/ml bacitracin, pH 7.4) ^125I [Tyr^4] bombesin (0.075 nM) and 2 μl of each compound to be tested dissolved in dimethyl sulfoxide were added to a 96 well assay plate and incubated at room temperature for 2 hours. Non-specific binding was measured using 1 μM of bombesin. After completion of the incubation, the reaction liquid was filtered through a Whatman GF/B filter which had been soaked in 0.5% polyethyleneimine. The radioactivity on the filter was measured using a microplate scintillation counter (Top Count, Perkin-Elmer).

[2] = test system: fed male ddY mice; experiment: Restraint stress-induced defication model; assay type: in vivo; conditions: for 50% inhibition dose for restraint stress-induced defication: number of feces excreted during 1 hour of restraint
Excerpt: RC-3095 was used by dissolving in physiological saline, and compound 1, compound 3 and compound 5 in physiological saline containing 5% ethanol+5% Cremophor, and compound 2 and compound 4 in water for injection containing 20% propylene glycol+20% Tween 80. Just after intraperitoneal administration of a compound to be tested to each of fed male ddY mice, the animal was put into a restraint stress cage (KN-469, Natsume Seisakusho). The number of feces excreted during a period of from the restriction commencement to 1 hour thereafter was measured. Normal group was put into a separate cage, and number of feces excreted during 1 hour was measured in the same manner.

[3] = test system: fed male Sprague-Dawley rats; experiment: Conditioned-fear stress (CFS)-induced defication model; assay type: in vivo; conditions: wet weight of feces for 30 minutes
Experimental: Fed male Sprague-Dawley rats were used. The rats were put into an electric shock device having a grid set in the floor (17×17×39 cm, trade name: CB 2000 type, O'Hara), and conditioning was carried out after 3 seconds of a warning sound, by applying an electric current of 2.5 mA for 5 seconds per once per minute, a total of 15 times, and carrying out light irradiation by three 40 W electric bulbs at the time of the electric shock. The normal group was put into the measuring device by the same protocol, but the electric shock was not applied. After about 24 hours, the rats were again put into the electric shock device just after intraperitoneal administration of tested compound, and CFS loading was carried out by applying 3 seconds of warning sound and 5 seconds light irradiation for 30 minutes. Wet weights of excreted feces were measured for 30 minutes starting from the commencement of CFS loading. In this connection, the feces just after putting of the rats into the measuring device were excluded from measured values.

[4] = test system: fed male Wistar rats; experiment: Abdominal pain model by large intestinal distension using abdominal muscle contraction reaction as the index; assay type: in vivo
Experimental: Fed male Wistar rats were used. Under pentobarbital anesthesia, an electrode for electromyogram use (trade name: M-1.5I, Star Medical) was sewed on the outer abdominal oblique muscle. The electrode cord was fished out from the body of around the back of the head through the skin and protected with a protective jacket prepared by processing Velcro. The test was carried out when 5 days or more passed after the surgical operation.
On the day of the test, a latex balloon of 5 to 6 cm in length was inserted from the rat anus under a light ether anesthesia and adjusted such that the balloon end is positioned at 2 cm from the anus. The catheter continuing from the balloon was fixed to the tail base with a tape and connected to a pressure transducer and a plastic bottle filled with water via a three-way cock. The plastic bottle was connected to a motor-aided device such that its height can be increased at a constant rate, and the colon-rectum was distended by increasing height of the plastic bottle. The balloon internal pressure signal was amplified using an amplifier for strain pressure use. After recovering from the ether anesthesia in a cage (23.5×19×19 cm), the colon-rectum distension was carried out. […] As a result, the abdominal muscle contracts and the electromyogram activities increase suddenly and sharply. The pressure at this point of time was regarded as the abdominal pain reflection threshold value. The electromyogram activities were amplified using an amplifier for bioelectric use (trade name: AB-621G, Nihon Kohden Corp.), and recorded by a data recording interface (trade name: 1401 plus, Cambridge Electronic Design, Cambridge, England). The colon-rectum distension was repeatedly carried out at intervals of 4 minutes until completion of the test. The compound was administered 2 minutes after completion of the measurement of the pre-administration value, and the colon-rectum distension was repeated until 60 minutes after the administration. […]

[5] = test system: patients; conditions: IBS patients; cited from earlier work

| IC50 [1] [nM] | Compound | 50% inhibition dose for restraint stress-induced defication ([2]; intraperitoneal) [mg/kg] | further results |
| --- | --- | --- | --- |
| 504 | c1ccc(-c2sc(-c3ccccn3)nc2-c2cccc3ccccc23)cc1 [compound 1, 2-[4-(1-naphthyl)-5-phenyl-1,3-thiazol-2-yl]pyridine] |  | inhibitory effect on the defication ([2]; 10 mg/kg intraperitoneal, number of feces during 1 hour of restraint): about 83% |
| 1330 | O=C(/C=C/c1ccc(-c2ccc([N+](=O)[O-])cc2)o1)c1ccccc1 [compound 2, (2E)-3-[5-(4-nitrophenyl)-2-furyl]-1-phenyl-2-propen-1-one] | 34.3 |  |
| 342 | O=C(Nc1ccc(S(=O)(=O)N2CCCCC2c2cccnc2)cc1)c1cc([N+](=O)[O-])ccc1Cl (centres unmarked) [compound 3, 2-chloro-5-nitro-N-(4-{[2-(pyridin-3-yl)piperidin-1-yl]sulfonyl}phenyl)benzamide] | 19.0 |  |
| 398 | COc1ccc(N(CC(=O)Nc2ccc(Cl)cc2C)S(=O)(=O)c2ccccc2)cc1OC [compound 4] | 13.5 |  |

More lines, now with the values behind:

| Compound | IC50 [1] [nM] | 50% inhibition dose for restraint stress-induced defication ([2]; intraperitoneal) [mg/kg] | further results |
| --- | --- | --- | --- |
| CC(C)CC(CN[C@@H](CC(C)C)C(N)=O)NC(=O)[C@H](Cc1cnc[nH]1)NC(=O)CNC(=O)[C@@H](NC(=O)C(C)NC(=O)[C@H](Cc1c[nH]c2ccccc12)NC(=O)[C@H](CCC(N)=O)NC(=O)[C@H]1Cc2c([nH]c3ccccc23)CN1)C(C)C (some centres unmarked) [RC-3095] | 20 | 5.2 | effect on restraint stress-induced defication (in words) ([2]; intraperitoneal, FIG. 2): dose-dependent inhibitory effect on the defication; effect on CFS-induced defication at 10 mg/kg (in words) ([3]; 10 mg/kg intraperitoneal): significant inhibitory action; effect on CFS-induced defication (in words) ([3]; intraperitoneal, FIG. 8): dose-dependent inhibitory effect on the defication; action on abdominal pain threshold value at 3 mg/kg (in words) ([4]; 3 mg/kg, AUC of threshold values until 60 minutes): significant increasing action; action on abdominal pain threshold value at 10 mg/kg (in words) ([4]; 10 mg/kg, AUC of threshold values until 60 minutes): significant increasing action; action on abdominal pain threshold value (in words) ([4]; AUC of threshold values until 60 minutes after administration, FIG. 9): dose-dependently increase abdominal pain threshold value |
| Cc1[nH]cnc1CN1CCc2c(c3ccccc3n2C)C1=O [alosetron] |  |  | improving rate for abdominal symptoms and diarrhea [5]: 40 to 60%; serious side effect [5]: ischemic colitis (including mortal cases) |
| COc1cc(OC)cc(C(=O)Nc2sc3c(c2-c2nc4ccccc4s2)CCN(C(C)C)C3)c1.Cl [compound 5, N-[3-(1,3-benzothiazol-2-yl)-6-isopropyl-4,5,6,7-tetrahydrothieno[2,3-c]pyridin-2-yl]-3,5-dimethoxybenzamide hydrochloride] | 383 | 15.6 |  |
